Source: patent US7439351B2, “2′ or 3′ -deoxy and 2′, 3′-dideoxy-β-L-pentofuranonucleo-side compounds, method of preparation and application in therapy, especially as anti-viral agents” (The UAB Research Foundation, priority 1993, dated 2008)
Entries after “also recorded” stand apart in the source; their conditions may differ.

What was measured:
[1] = tested on: noninfected CEM-SS cells; assay: Toxic effect on noninfected cells (formazan formation), CEM-SS; conditions: at least 50% inhibition of formazan formation, 5 days
Protocol: (§1) The toxic effect on the noninfected cells is assessed by calorimetric reaction based on the capacity of live cells to reduce 3-(4,5-dimethylthiozol-2-yl)-2,5-diphenyltetrazolium bromide to formazan after incubating for 5 days in the presence of various concentrations of the compounds.

[2] = tested on: noninfected PBM cells; assay: Toxic effect on noninfected cells (formazan formation), PBM; conditions: at least 50% inhibition of formazan formation, 5 days
Protocol: as §1

[3] = tested on: noninfected PBMC; assay: Toxic effect on noninfected cells (formazan formation), PBMC; conditions: at least 50% inhibition of formazan formation, 5 days
Protocol: as §1

[4] = tested on: herpes simplex viruses (HSV); conditions: cell cultures; Spadari et al. 1992; cited from earlier work
[5] = tested on: HIV; conditions: prior art reports; listed as β-L-DDC; cited from earlier work
[6] = tested on: HIV; conditions: CEM cell culture; Mansuri et al. 1991; read-out: IC50 against HIV; cited from earlier work

SMILES | CD50 [1] | CD50 [2] | CD50 [3] | antiviral activity against HSV (in words) [4] | activity against HIV (in words) [5] | IC50 [6]
Nc1nc(=O)n([C@@H]2CC[C@H](CO)O2)cc1F [Compound 21b, 2′,3′-dideoxy-β-L-5-fluorocytidine] | 9e-05 M | 10^−4 M | 10^−4 M |  |  | 
Cc1cn([C@@H]2C[C@@H](O)[C@H](CO)O2)c(=O)[nH]c1=O [β-L-Thymidine] |  |  |  | relatively limited antiviral activity |  | 
Nc1ccn([C@@H]2CC[C@H](CO)O2)c(=O)n1 [Compound 21a, 2′,3′-dideoxy-β-L-cytidine] | 8.3e-05 M | 10^−4 M | 10^−4 M |  | relatively limited antiviral activity; also recorded: no activity against HIV | 660 nM
Nc1ccn([C@H]2CC[C@@H](CO)O2)c(=O)n1 [DDC, reference compound] | 6e-05 M | 7e-05 M | 2.5e-05 M |  |  | 
Cc1cn([C@H]2C[C@H](N=[N+]=[N-])[C@@H](CO)O2)c(=O)[nH]c1=O [AZT, reference compound] | >10^−4 M | 7e-05 M | 8e-05 M |  |  | 
